Measurements reported in patent US20070027118A1 (priority 2005, published 2007).
Like-named read-outs stand apart in the source and are kept apart here.

Assays:
[1] = target: T1, 11β-hsd-1 enzyme (Homo sapiens, UniProt P28845); assay: biochemical; settings: for inhibition / inhibition at 100 µM: read-out: % Inh @ 0.1 mM; for inhibition at 0.1 µM: read-out: % Inh @ 0.1 μM; for inhibition at 100 µM: Table 2, inhibitor 0.1 mM as printed
Outline: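 Human 11β-HSD-1 (5 nM) pre-incubated ≥30 min with inhibitor and 500 μM NADPH in triethanolamine buffer pH 8.0 with NaCl, n-dodecyl β-D-maltoside and β-ME; reaction started with G6P/G6PDH/MgCl2 regenerating system and 200 nM 3H-cortisone, run 60 min, stopped with DMSO. 3H-cortisol and substrate separated by radio-HPLC; percent inhibition from peak areas.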

[2] = target: T1, 11β-hsd-1 enzyme; assay: biochemical
Outline: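 Enzyme (5 nM) pre-incubated ≥30 min at RT with inhibitor and 500 μM NADPH in triethanolamine buffer pH 8.0; reaction started with glucose-6-phosphate regenerating system and 200 nM 3H-cortisone, stopped with DMSO after 60 min. Product quantified by radio-HPLC; Kiapp from Morrison tight-binding equation.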

T1 sequence (P28845 whole entry, species assumed): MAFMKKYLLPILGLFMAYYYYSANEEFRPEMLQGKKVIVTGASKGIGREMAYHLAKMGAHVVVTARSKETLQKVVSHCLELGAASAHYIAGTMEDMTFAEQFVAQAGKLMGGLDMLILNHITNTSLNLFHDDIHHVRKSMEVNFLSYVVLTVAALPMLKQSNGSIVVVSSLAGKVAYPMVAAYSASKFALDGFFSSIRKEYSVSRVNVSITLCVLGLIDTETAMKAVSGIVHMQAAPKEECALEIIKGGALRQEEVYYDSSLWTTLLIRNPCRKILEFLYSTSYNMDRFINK

Row | SMILES | inhibition [1] [%] | Ki [2] [nM] | inhibition at 0.1 µM [1] [%] | inhibition at 0.1 µM ([1]; Table 1, inhibitor 0.1 μM) [%] | inhibition at 100 µM [1] [%]
1 | CCc1cccc(NS(=O)(=O)N2CCN(c3ncc(C(F)(F)F)cc3Cl)CC2)n1 [Example 195, 4-[3-chloro-5-(trifluoromethyl)pyridin-2-yl]-N-(6-ethylpyridin-2-yl)piperazine-1-sulfonamide] | 92.3 | 29 |  |  | 
2 | Cc1cccc(NS(=O)(=O)N2CCC(c3ccc(C#N)cn3)CC2)n1 [Example 33, 4-(5-cyanopyridin-2-yl)-N-(6-methylpyridin-2-yl)piperidine-1-sulfonamide] |  | 50 | 100 |  | 
3 | Cc1ccc(C)n1-c1cccc(NS(=O)(=O)N2CCC(c3ccc(F)cc3)CC2)n1 [Example 57, N-[6-(2,5-dimethyl-1H-pyrrol-1-yl)pyridin-2-yl]-4-(4-fluorophenyl)piperidine-1-sulfonamide] |  | 56 |  | 85 | 
4 | N#Cc1cccnc1N1CCN(S(=O)(=O)Nc2ccc3ccccc3n2)CC1 [Example 162, 4-(3-cyanopyridin-2-yl)-N-quinolin-2-ylpiperazine-1-sulfonamide] | 92.2 | 26 |  |  | 
5 | CCc1cccc(NS(=O)(=O)N2CCCC(OCc3ccccc3)C2)n1 (stereo not drawn) [Example 88, 3-(benzyloxy)-N-(6-ethylpyridin-2-yl)piperidine-1-sulfonamide] | 77.1 | 52 |  |  | 
6 | O=C(c1ccc(N2CCN(S(=O)(=O)Nc3ccc4ccccc4n3)CC2)nc1)N1CCOCC1 [Example 178, 4-[5-(morpholin-4-ylcarbonyl)pyridin-2-yl]-N-quinolin-2-ylpiperazine-1-sulfonamide] | 73.3 | 190 |  |  | 
7 | CCc1cccc(NS(=O)(=O)N2CCC(c3ccnc(N(C)C)n3)CC2)n1 [Example 81, 4-[2-(dimethylamino)pyrimi-din-4-yl]-N-(6-ethylpyridin-2-yl)piperidine-1-sulfonamide] | 86.8 | 230 |  |  | 
8 | Cc1cccc(NS(=O)(=O)N2CCCN(C(=O)OCc3ccccc3)CC2)n1 [Example 134, benzyl 4-{[(6-methylpyridin-2-yl)amino]sulfonyl}-14-diazepane-1-carboxylate] | 76.7 | 110 |  |  | 
9 | CCc1cccc(NS(=O)(=O)N2CCCC(COCC3CC3)CC2)n1 (stereo not drawn) [Example 95, 4-[(cyclopropylmethoxy)-methyl]-N-(6-ethylpyridin-2-yl)azepane-1-sulfonamide] | 86.2 | 82 |  |  | 
10 | O=C1CN(S(=O)(=O)Nc2ccc3ccccc3n2)CCN1Cc1ccc(F)cc1 [Example 173, 4-(4-fluorobenzyl)-3-oxo-N-quinolin-2-ylpiperazine-1-sulfonamide] |  | 130 |  |  | 75.5
11 | Cc1cccc(NS(=O)(=O)N2CCCN(c3ncccc3C#N)CC2)n1 [Example 139, 4-(3-cyanopyridin-2-yl)-N-(6-methylpyridin-2-yl)-14-diazepane-1-sulfonamide] | 86.5 | 88 |  |  | 
12 | N#Cc1ccc(N2CCCN(S(=O)(=O)Nc3ccc4ccccc4n3)CC2)nc1 [Example 45] |  | 53 | 73 |  | 
13 | CCc1cccc(NS(=O)(=O)N2CCC(OCc3ccccc3)CC2)n1 [Example 91, 4-(benzyloxy)-N-(6-ethylpyridin-2-yl)piperidine-1-sulfonamide] | 75.9 | 45 |  |  | 
14 | O=S(=O)(Nc1ccc2ccccc2n1)N1CCOC(COc2cc(F)cc(F)c2)C1 (stereo not drawn) [Example 100, 2-[(35-difluorophenoxy)meth-yl]-N-quinolin-2-ylmorpholine-4-sulfonamide] | 90.6 | 59 |  |  | 
15 | CCc1cccc(NS(=O)(=O)N2CCC(C3CCN(C(=O)c4ccc(F)cc4)CC3)CC2)n1 [Example 108, N-(6-ethylpyridin-2-yl)-1′-(4-fluorobenzoyl)-44′-bipiperidine-1-sulfonamide] | 89 | 60 |  |  | 
16 | O=S(=O)(Nc1ccc2ccccc2n1)N1CCCC(COCC2CC2)CC1 (stereo not drawn) [Example 98, 4-[(cyclapropylmethoxy)meth-yl]-N-quinolin-2-ylazepane-1-sulfonamide] | 92.4 | 28 |  |  | 
17 | Cc1cccc(NS(=O)(=O)N2CCCN(c3ncccn3)CC2)n1 [Example 133, N-(6-methylpyridin-2-yl)-4-pyrimidin-2-yl-14-diazepane-1-sulfonamide] | 71 | 330 |  |  | 
18 | CCc1cccc(NS(=O)(=O)N2CCN(c3ncccc3C#N)CC2)n1 [Example 201, 4-(3-cyanopyridin-2-yl)-N-(6-ethylpyridin-2-yl)piperazine-1-sulfonamide] | 83.9 | 33 |  |  | 

Compounds with a lower Ki [2], results first:

Row | inhibition [1] [%] | Ki [2] [nM] | inhibition at 0.1 µM [1] [%] | inhibition at 0.1 µM ([1]; Table 1, inhibitor 0.1 μM) [%] | inhibition at 100 µM [1] [%] | SMILES
19 | 85.8 | 20 |  |  |  | CCOC(=O)N1CCN(S(=O)(=O)Nc2cccc(CC)n2)CC1 [Example 196, ethyl 4-{[(6-ethylpyridin-2-yl)amino]sulfonyl}piperazine-1-carboxylate]
20 |  | 19.8 | 100 |  |  | Cc1cccc(NS(=O)(=O)N2CCN(c3ccc(C#N)cn3)[C@H](C)C2)n1 [Example 23, (3R)-4-(5-cyanopyridin-2-yl)-3-methyl-N-(6-methylpyridin-2-yl)piperazine-1-sulfonamide]
21 | 100 | 18 |  |  |  | CCc1cccc(NS(=O)(=O)N2CCC(Cc3ccccc3)CC2)n1 [Example 116, 4-benzyl-N-(6-ethylpyridin-2-yl)piperidine-1-sulfonamide]
22 |  | 17 | 89 |  |  | CCc1cccc(NS(=O)(=O)N2CCCN(c3ccc(C#N)cn3)CC2)n1 [Example 42]
23 | 91.9 | 16 |  |  |  | Cc1cccc(N2CCN(S(=O)(=O)Nc3ccc4ccccc4n3)CC2)n1 [Example 161, 4-(6-methylpyridin-2-yl)-N-quinolin-2-ylpiperazine-1-sulfonamide]
24 | 100 | 16 |  |  |  | COc1ccc2oc(N3CCN(S(=O)(=O)Nc4ccc5ccccc5n4)CC3)nc2c1 [Example 166, 4-(5-methoxy-13-benzoxazol-2-yl)-N-quinolin-2-ylpiperazine-1-sulfonamide]
25 | 100 | 13 |  |  |  | CCc1cccc(NS(=O)(=O)N2CC[C@@H]3CCCC[C@@H]3C2)n1 (racemic) [Example 120, (4aS*8aS*)-N-(6-ethylpyridin-2-yl)octahydro-isoquinoline-2(1H)-sulfonamide]
26 |  | 13 |  | 78.2 |  | CCc1cccc(NS(=O)(=O)N2CCc3ccc(S(C)(=O)=O)cc3CC2)n1 [Example 18]
27 | 91.7 | 11 |  |  |  | CCc1cccc(NS(=O)(=O)N2CCC(c3cccc(O)c3)CC2)n1 [Example 122, N-(6-ethylpyridin-2-yl)-4-(3-hydroxyphenyl)piperidine-1-sulfonamide]
28 |  | 11 | 100 |  |  | Cc1cc(N)nc(NS(=O)(=O)N2CCN(c3ncc(F)cn3)CC2)c1 [Example 31, N-(6-amino-4-methylpyridin-2-yl)-4-(5-fluoropyrimidin-2-yl)piperazine-1-sulfonamide]
29 | 85.7 | 11 |  |  |  | CCOC(=O)N1CCN(S(=O)(=O)Nc2ccc3ccccc3n2)CC1 [Example 160, ethyl 4-[(quinolin-2-ylamino)sulfonyl]piperazine-1-carboxylate]
30 |  | 10 | 100 |  |  | O=S(=O)(Nc1ccc2ncccc2n1)N1CCN(c2ccc(C(F)(F)F)cn2)CC1 [Example 35, N-1,5-naphthyridin-2-yl-4-[5-(trifluoromethyl)pyridin-2-yl]piperazine-1-sulfonamide]
31 | 88.4 | 9.6 |  |  |  | CCc1cccc(NS(=O)(=O)N2CCC(c3ccc(C(=O)NC4CCCC4)cc3)CC2)n1 [Example 74, N-cyclopentyl-4-(1-{[(6-ethylpyrin-2-yl)amino]sulfonyl}pipendin-4-yl)benzamide]
32 |  | 8.6 |  | 100 |  | CS(=O)(=O)c1ccc2c(c1)CCN(S(=O)(=O)Nc1ccc3ccccc3n1)CC2 [Example 12, 7-(Methylsulfonyl)-N-quinolin-2-yl-1,2,4,5-tetrahydro-3H-3-benzazepine-3-sulfonamide]
33 |  | 8.4 |  |  | 100 | Cc1cccc(NS(=O)(=O)N2CCN(c3nc4ccc(Cl)cc4o3)CC2)n1 [Example 138, 4-(6-chloro-13-benzoxazol-2-yl)-N-(6-methylpyridin-2-yl)piperazine-1-sulfonamide]
34 |  | 8.2 |  |  | 100 | Cc1cccc(NS(=O)(=O)N2CCCN(c3nc4cc(Cl)ccc4o3)CC2)n1 [Example 153, 4-(5-chloro-13-benzoxazol-2-yl)-N-(6-methylpyridin-2-yl)-14-diazepane-1-sulfonamide]
35 | 92.5 | 7.7 |  |  |  | CCc1cccc(NS(=O)(=O)N2CCCCCCC2)n1 [Example 193, N-(6-ethylpyridin-2-yl)azocane-1-sulfonamide]
36 | 90.6 | 7.1 |  |  |  | O=S(=O)(Nc1ccc2ccccc2n1)N1CCCCCCC1 [Example 155, N-quinolin-2-ylazocane-1-sulfonamide]
37 |  | 5.4 | 96.6 |  |  | CCc1cccc(NS(=O)(=O)N2CCC(c3ccc(F)cc3)CC2)n1 [Example 68]
38 | 100 | 3.5 |  |  |  | CCc1cccc(NS(=O)(=O)N2CCC(c3ccccc3)CC2)n1 [Example 121, N-(6-ethylpyridin-2-yl)-4-phenylpiperidine-1-sulfanamide]
39 | 100 | 1 |  |  |  | CCc1cccc(NS(=O)(=O)N2CCN(c3ncc(-c4ccc(OC)cc4)cn3)CC2)n1 [Example 144, N-(6-ethylpyridin-2-yl)-4-[5-(4-methoxyphenyl)pyrimidin-2-yl]piperazine-1-sulfonamide]
